Source: US5563149A, “Aqueous solutions of pyridone carboxylic acids” (Cheil Foods & Chemicals, Inc., priority 1994, dated 1996)
Converted amounts (≈) assume the structure as drawn.

Legend:
[1] = bioavailability and half-life; format: in vivo; settings: compared with quinolone drugs commercially available or in development
[2] = test system: gram-negative and gram-positive bacteria; experiment: in vitro antibacterial activity (gram-negative and gram-positive bacteria); format: cell-based
[3] = Solubility of compound A in water with added acid or amino acid, and pH of the saturated solution; format: physicochemical; settings: for solubility at 4 h: water, per ml of water
Description: The organic acids suitable as solubilizing agents are chosen depending on the correlationship between the organic acid and the physical properties of the selected quinolone compound. Therefore, a varity of organic acids and amino acids were evaluated to determine whether certain acids are suitable as solubilizing agents capable of increasing the water solubility of compound A and the pH of the aqueous solution is suitable for injection and/or infusion solutions.
Exemplary active substance in practicing the present invention is compound A. The test method of the solubility is set forth as follows:
Compound A was mixed with an organic acid or an amino acid in the mole ratios between 0.5 and 6 before water was added with reflux. Then, the resulting solution was rigorously shaken with stirring for 5 minutes so that it was made homogeneous. After the homogenous solution was left to stand at elevated temperature for 4 hours, it was extracted through 0.45 micro of membrane filter. The amounts of active substances present in extracts were quantified by high pressure liquid chromatography.

[4] = solubility in water (without solubilizing agent); format: physicochemical; settings: no acid added
[5] = with asparagine, glutamic acid or gluconic acid; Korean Patent Application Publication No. 89-2040; cited from earlier work

**Q.** Which bioavailability [1] does the source give for C[C@]12C[C@@H](N)[C@H]1CN(c1nc3c(cc1F)c(=O)c(C(=O)O)cn3C1CC1)C2 (relative stereo) [compound A, 1-cyclopropyl-6-fluoro-l,4-dihydro-4-oxo-7-([1α, 5α,6β]6-amino-1-methyl-3-azabicyclo[3.2.0]heptan-3-yl)-1,8-naphtyridine-3-carboxylic acid] here?
**A.** Its bioavailability is “better”.

**Q.** And the half-life [1]?
**A.** Its half-life is “better”.

**Q.** What about the “antibacterial activities compared with Lomefloxacin and Ofloxacin” value [2] of the same compound?
**A.** The value was “superior”.

**Q.** And the “pH of saturated solution” value ([3]; compound A with Alanine)?
**A.** Its value is 6.4.

**Q.** And the “pH of saturated solution” value ([3]; compound A with Arginine)?
**A.** Its value is 10.0.

**Q.** What about the “pH of saturated solution” value ([3]; compound A with Asparagine) of the same compound?
**A.** Its value is 6.2.

**Q.** And the “pH of saturated solution” value ([3]; compound A with Aspartic acid)?
**A.** The value was 5.3.

**Q.** And the “pH of saturated solution” value ([3]; compound A with Cinnamic acid)?
**A.** The value was 1.8.

**Q.** What about the “pH of saturated solution” value ([3]; compound A with Galacturonic (acid)) of the same compound?
**A.** Its value is 3.3.

**Q.** And the “pH of saturated solution” value ([3]; compound A with Gluconic acid)?
**A.** Its value is 3.3.

**Q.** And the “pH of saturated solution” value ([3]; compound A with Gluconic acid lactone)?
**A.** Its value is 3.6.

**Q.** What about the “pH of saturated solution” value ([3]; compound A with Glutamine) of the same compound?
**A.** Its value is 6.4.

**Q.** And the “pH of saturated solution” value ([3]; compound A with Glutaric acid)?
**A.** Its value is 3.8.

**Q.** And the “pH of saturated solution” value ([3]; compound A with Histidine)?
**A.** The value was 7.6.

**Q.** What about the “pH of saturated solution” value ([3]; compound A with Hydrochloric acid) of the same compound?
**A.** Its value is 2.0.

**Q.** What about the “pH of saturated solution” value ([3]; compound A with Isoleucine) of the same compound?
**A.** The value was 6.4.

**Q.** And the “pH of saturated solution” value ([3]; compound A with L-cysteine)?
**A.** The value was 6.2.

**Q.** And the “pH of saturated solution” value ([3]; compound A with L-valine)?
**A.** Its value is 6.4.

**Q.** What about the “pH of saturated solution” value ([3]; compound A with Malic acid) of the same compound?
**A.** The value was 3.4.

**Q.** And the “pH of saturated solution” value ([3]; compound A with Methionine)?
**A.** The value was 6.4.

**Q.** What about the “pH of saturated solution” value ([3]; compound A with Oxalic acid) of the same compound?
**A.** The value was 4.2.

**Q.** What about the “pH of saturated solution” value ([3]; compound A with Succinic acid) of the same compound?
**A.** The value was 4.0.

**Q.** What about the “pH of saturated solution” value ([3]; compound A with Threonine) of the same compound?
**A.** Its value is 6.3.

**Q.** What about the solubility at 4 h ([3]; with Alanine) of the same compound?
**A.** Its solubility at 4 h is 1300 µg/mL (≈ 3.49 mM).

**Q.** What about the solubility at 4 h ([3]; with Arginine) of the same compound?
**A.** The solubility at 4 h was 8200 µg/mL (≈ 22 mM).

**Q.** What about the solubility at 4 h ([3]; with Asparagine) of the same compound?
**A.** The solubility at 4 h was 2100 µg/mL (≈ 5.64 mM).

**Q.** And the solubility at 4 h ([3]; with Aspartic acid)?
**A.** Its solubility at 4 h is 37600 µg/mL (≈ 101 mM).

**Q.** And the solubility at 4 h ([3]; with Cinnamic acid)?
**A.** The solubility at 4 h was 2100 µg/mL (≈ 5.64 mM).

**Q.** And the solubility at 4 h ([3]; with Galacturonic (acid))?
**A.** The solubility at 4 h was 18300 µg/mL (≈ 49.1 mM).

**Q.** And the solubility at 4 h ([3]; with Gluconic acid lactone)?
**A.** Its solubility at 4 h is 28100 µg/mL (≈ 75.5 mM).

**Q.** And the solubility at 4 h ([3]; with Gluconic acid)?
**A.** The solubility at 4 h was 33400 µg/mL (≈ 89.7 mM).

**Q.** What about the solubility at 4 h ([3]; with Glutamine) of the same compound?
**A.** Its solubility at 4 h is 1600 µg/mL (≈ 4.3 mM).

**Q.** What about the solubility at 4 h ([3]; with Glutaric acid) of the same compound?
**A.** Its solubility at 4 h is 12100 µg/mL (≈ 32.5 mM).

**Q.** And the solubility at 4 h ([3]; with Histidine)?
**A.** The solubility at 4 h was 2100 µg/mL (≈ 5.64 mM).

**Q.** And the solubility at 4 h ([3]; with Hydrochloric acid)?
**A.** The solubility at 4 h was 44300 µg/mL (≈ 119 mM).

**Q.** What about the solubility at 4 h ([3]; with Isoleucine) of the same compound?
**A.** The solubility at 4 h was 1400 µg/mL (≈ 3.76 mM).

**Q.** And the solubility at 4 h ([3]; with L-cysteine)?
**A.** Its solubility at 4 h is 2300 µg/mL (≈ 6.18 mM).

**Q.** What about the solubility at 4 h ([3]; with L-valine) of the same compound?
**A.** The solubility at 4 h was 1300 µg/mL (≈ 3.49 mM).

**Q.** And the solubility at 4 h ([3]; with Malic acid)?
**A.** Its solubility at 4 h is 48700 µg/mL (≈ 131 mM).

**Q.** What about the solubility at 4 h ([3]; with Methionine) of the same compound?
**A.** The solubility at 4 h was 1500 µg/mL (≈ 4.03 mM).

**Q.** What about the solubility at 4 h ([3]; with Oxalic acid) of the same compound?
**A.** The solubility at 4 h was 3500 µg/mL (≈ 9.4 mM).

**Q.** What about the solubility at 4 h ([3]; with Succinic acid) of the same compound?
**A.** Its solubility at 4 h is 47600 µg/mL (≈ 128 mM).

**Q.** What about the solubility at 4 h ([3]; with Threonine) of the same compound?
**A.** The solubility at 4 h was 1500 µg/mL (≈ 4.03 mM).

**Q.** And the “solubility of compound A / pH of the resulting solution (in words)” value ([3]; with glutaric acid, cinnamic acid, galacturonic acid, glutamine, isoleusine, threonine, histidine, L-cysteine, alanine, arginine, L-valine, methionine or oxaline)?
**A.** The value was “did not substantilly improve the solubility of compound A or the pH of the resulting solution is unsuitable as injection and/or infusion solutions”.

**Q.** What about the solubility in water [4] of the same compound?
**A.** Its solubility in water is “not substantially soluble or little soluble in water”.

**Q.** For CCn1cc(C(=O)O)c(=O)c2cc(F)c(N3CCNCC3)nc21 [Enoxacin], which deposits in solutions [5] is on record?
**A.** The deposits in solutions was “do not lead to deposits”.
